Test results from US20090118225A1, “1-Methyl Nicotinamide and Derivatives for Treatment of Gastric Injury” (Cortria Corporation, priority 2007, published 2009).
Each block holds one molecule with its values, some of them ahead of it.

Tests used:
acetic acid ulcer = experiment: Acetic acid ulcer area and GBF in rats with and without rofecoxib; type: in vivo
Description: The following experiments were designed to assess the effects of 1-MNA on acetic acid ulcer area and GBF in rats administered with and without a selective COX-2 inhibitor (e.g., rofecoxib).

[1] = tested on: WRS-induced gastric lesions; experiment: Water immersion and restraint stress (WRS)-induced gastric lesion model; type: in vivo, Male Wistar rats; details: for effect on the protection by 1-MNA with respect to gastric lesions / effect on the protective property of 1-MNA as measured by mean lesion number and plasma levels of IL-1β and TNFα: COX inhibitor pretreatment plus 1-MNA; for effect on gastroprotection and the accompanying rise in the GBF induced by 1-MNA: summary of inhibitor experiments; for lesion numbers after COX inhibitor pretreatment before 1-MNA and WRS: indomethacin 5 mg/kg i.p., SC-560 5 mg/kg i.g. or rofecoxib 10 mg/kg i.g., versus absence of inhibitor
Procedure: (§1) Male Wistar rats, weighing 180-220 grams were fasted for 24 hours before subjecting to experimentation were employed in all studies. The animals were divided into groups for the following types of induced gastric lesions: ethanol-; aspirin (acetylsalicylic acid; ASA)-; stress-; and ischemia-reperfusion (I/R)-induced gastric lesions. In the first group, gastric lesions were produced by intragastric (i.g.) application of ethanol (75%), in the second group by i.g. application of acidified ASA (125 mg/kg), in the third group by animal exposure to 3.5 hours of water immersion (and restraint stress (WRS), in the fourth group by ischemia (by clamping celiac artery for 30 minutes followed by release of the clamp (reperfusion for 3 hours) (I/R).
(§2) The following experiments were designed to assess the therapeutic effect of 1-MNA on induced gastric lesions.
(§3) To assess gastric blood flow (GBF) laser Doppler flowmeter (Laserflo, model BPM 403A, Blood Perfusion Monitor, Vasamedics, St. Paul, Minn., USA) was used. The animals were anaesthetized with Vetbutal 50 mg/kg (Biowet, Pu^3awy, Poland), then the abdomen was opened and the stomach was exposed to assess the GBF. Blood flow was measured on anterior and posterior wall of stomach. The mean values of these measurements were calculated and expressed as percent change from value recorded in the intact mucosa.
(§4) To establish the number and area of gastric lesions, computerized planimetry (Morphomat, Carl Zeiss, Berlin, Germany) was used. Results are expressed as mm.
(§5) A venous blood sample was withdrawn from the vena cava into EDTA-containing vials in order to determine the plasma level of interleukin-1 beta (IL-1β) and tumor necrosis factor alpha (TNFα) by ELISA technique (BioSource International, Camarillo, Calif., USA).

[2] = tested on: diabetes and stress-induced gastric damage; experiment: Combined diabetes and stress-induced gastric damage model; type: in vivo, rats
Description: as §5
The next set of experiments was designed to assess the therapeutic effects of 1-MNA in a combined diabetic and stress-induced gastric damage model.
Insulin-dependent diabetes exerts various influences on gastric functions, such as acid secretion and gastric emptying. It has observed that aggravation of gastric mucosal ulcerogenic responses occurs in diabetic rats. Furthermore, deleterious influence of diabetes on the healing of gastric mucosal lesions has been observed in diabetic rats.

[3] = tested on: I/R-induced gastric lesions; experiment: Ischemia-reperfusion (I/R)-induced gastric lesion model; type: in vivo, Male Wistar rats
Procedure: as §1, §2, §3, §4

gastric acid output = experiment: Gastric acid output in rats having chronic gastric fistula (GF); type: in vivo
Procedure: The following experiments were designed to compare the effects of pretreatment with vehicle and 1-MNA or NA on stress-induced gastric lesions and the accompanying changes in gastric blood flow (GBF) and gastric tissue activities of MDA and SOD and plasma pro-inflammatory cytokine IL-1β and TNF-α levels. These sets of experiments were based on the observation that 1-MNA was able to reduce the gastric output in rats having chronic gastric fistula (GF). Rats with chronic GF were administered with 1-MNA, NA, or a vehicle control.

[4] = tested on: ASA-induced gastric lesions; experiment: Acidified ASA-induced gastric lesion model; type: in vivo, Male Wistar rats
Procedure: as §1, §2, §3, §4
For lipid peroxydation in investigated groups, the determination of the levels of malondialdehyde (MDA) and 4 hydroxynonenal (4-HNE) was carried out and their levels were used as indicators of lipid peroxidation. The procedure of MDA and 4-HNE determination was following: 600 mg of gastric mucosa was excised. Then […] 0.5 M BHT (butylated hydroxytoluene) was added in order to prevent sample oxidation. This sample was subsequently homogenized in 20 mM Tris for 15 sec. in pH 7.4. The homogenate was centrifuged (3,000 g at 4° C. for 10 minutes). Obtained clear supernatant was stored at −80° C. prior to testing. The colorimetric assay for lipid peroxidation (Bioxytech LPO-586, Oxis, Portland, USA) was used to determine the MDA and 4-HNE tissue concentration. This assay is based on the reaction of a chromogenic reagent N-methyl-2-phenylindole with MDA and 4-HNE at 45° C. This reaction yields a stable chromophore with maximal absorbance at 586 nm. This absorbance was measured by spectrophotometer Marcel s300, Warsaw, Poland. Results were expressed as nanomole per gram of tissue (nmol/g).
To determine activity of superoxide dismutase (SOD), a sample of gastric mucosa was taken, as described above. The calorimetric assay for assessment of SOD activity (Bioxytech, SOD-525, Oxis, Portland, USA) was used. This method is based on the SOD-mediated increase in the rate of autooxidation of tetrahydrobenzofluorene in aqueous alkaline solution to yield a chromophore with maximum absorbance at 525 nm. This absorbance was measured by spectrophotometer Marcel s300, Warsaw, Poland. Outcomes were expressed as units per gram of tissue (U/g).
The next set of experiments were designed to measure myeloperoxidase (MPO), malondialdehyde (MDA) and 4-hydroxynonenal (4-HNE), and superoxide dismutase (SOD) activities in rat stomach exposed to acidified ASA as indicators of the prognosis of gastric mucosa injury. To evaluate the inflammatory changes, myeloperoxidase (MPO) activity in the gastric mucosa was measured. MPO activity was measured by enzyme assay. MDA and 4-HNE in tissue are accepted as major products of lipid peroxidation and thus are considered as indicators of mucosa injury by reactive oxygen species (ROS). Organisms have several enzymatic systems that scavenge ROS and prevent their destructive action. The major antioxidative enzyme is superoxide dismutase (SOD).

[5] = tested on: ethanol-induced gastric lesions; experiment: Ethanol-induced gastric lesion model; type: in vivo, Male Wistar rats
Procedure: as §1, §2, §3, §4

[6] = WRS 3.5 hours, pretreatment 30 minutes prior
[7] = ischemia 30 minutes, reperfusion 3 hours, pretreatment
[8] = acidified ASA 125 mg/kg i.g., pretreatment
[9] = comparison of protective properties
[10] = ethanol (75%) i.g., pretreatment
[11] = WRS, administration of 16,16-dimethyl PGE2

Molecule: C[n+]1cccc(C(N)=O)c1 [1-MNA, 1-methyl nicotinamide]
GBF in the ulcer area (acetic acid ulcer; rats given rofecoxib): increase the GBF in the ulcer area
ulcer area (acetic acid ulcer; rats given rofecoxib): reduce the ulcer area in rats given rofecoxib
GBF in the ulcer area (acetic acid ulcer; without rofecoxib): increase the GBF in the ulcer area
ulcer area (acetic acid ulcer; without rofecoxib): reduce the ulcer area
gastric blood flow [1, 6]: increased gastric blood flow
lesion number [1, 6]: decreased lesion number
plasma level of IL-1β ([1]; WRS model): decrease the plasma levels
plasma level of TNFα ([1]; WRS model): decrease the plasma levels
reduction of lesion number compared with NA ([1]; WRS, 1-MNA versus NA): more effectively than NA
mean lesion number [2]: reduce mean lesion number
plasma level of IL-1β [2]: decrease
plasma level of TNFα [2]: decrease
gastric blood flow [3, 7]: increased gastric blood flow
lesion number [3, 7]: decreased lesion number
dose dependence of the ability to inhibit gastric output (gastric acid output): increased with increasing dosage
suppression of gastric acid output compared with NA (gastric acid output; 1-MNA versus NA): more effectively than NA
gastric acid output (gastric acid output; 1-MNA, NA or vehicle control): decrease the gastric acid output
increase of gastric blood flow compared with NA ([4]; 1-MNA versus NA): more effectively than NA
reduction of lesion number compared with NA ([4]; 1-MNA versus NA): more effectively than NA
levels of 4-HNE in gastric mucosa ([4]; ASA-induced lesions): decreasing
levels of MDA in gastric mucosa ([4]; ASA-induced lesions): decreasing
levels of MPO in gastric mucosa ([4]; ASA-induced lesions): lowering the levels of MPO
levels of SOD in gastric mucosa ([4]; ASA-induced lesions): increasing the levels of SOD
gastric blood flow [4, 8]: increased gastric blood flow
lesion number [4, 8]: decreased lesion number
increasing GBF, compared with ranitidine, NO-ASA and SIN-1 [4, 9]: equally effective
increasing luminal NO, compared with ranitidine, NO-ASA and SIN-1 [4, 9]: equally effective
reducing mean lesion number, compared with ranitidine, NO-ASA and SIN-1 [4, 9]: equally effective
gastric blood flow [5, 10]: increased gastric blood flow
lesion number [5, 10]: decreased lesion number
increase of gastric blood flow compared with NA ([5]; ethanol model, 1-MNA versus NA): more effectively than NA
reduction of lesion number compared with NA ([5]; ethanol model, 1-MNA versus NA): more effectively than NA
mean lesion number in animals pretreated with either indomethacin, SC-560, or rofecoxib ([5]; ethanol model, presence of 1-MNA): significantly reduced

Molecule: CCCCC(C)(C)[C@H](O)/C=C/[C@H]1[C@H](O)CC(=O)[C@@H]1C/C=C\CCCC(=O)O [16,16-dimethyl PGE2]
gastric damage induced by either indomethacin, SC-560, or rofecoxib [1, 11]: successful in preventing the gastric damage
mean lesion number [1, 11]: sufficient to decrease the mean lesion number

Molecule: N=C(NCCC[C@H](N)C(=O)O)N[N+](=O)[O-] [L-NNA, NG-nitro-L-arginine, reference compound]
effect on the therapeutic effects of 1-MNA on gastric lesions ([3]; L-NNA 20 mg/kg i.p.): reverse the therapeutic effects of 1-MNA

Molecule: COc1ccc(-n2nc(C(F)(F)F)cc2-c2ccc(Cl)cc2)cc1 [SC-560]
effect on the protection by 1-MNA with respect to gastric lesions ([1]; WRS): significantly inhibited the protection by 1-MNA
effect on the protective property of 1-MNA as measured by mean lesion number and plasma levels of IL-1β and TNFα ([1]; WRS): significantly inhibited the protective property of 1-MNA
effect on gastroprotection and the accompanying rise in the GBF induced by 1-MNA [1]: significantly attenuated

Molecule: COc1cc(CNC(=O)CCCC/C=C/C(C)C)ccc1O [capsaicin]
effect of capsaicin denervation on the protection induced by 1-MNA with respect to gastric lesions ([1]; WRS, capsaicin 125 mg/kg s.c.): significantly inhibit the protection induced by 1-MNA
effect on gastroprotection and the accompanying rise in the GBF induced by 1-MNA [1]: significantly attenuated

Molecule: Oc1cc2c(cc1O)CN(C(=S)NCCc1ccc(Cl)cc1)CCC2 [capsazepine]
effect on the protective property of 1-MNA as measured by mean lesion number and gastric blood flow ([1]; WRS, capsazepine 5 mg/kg s.c.): reduced the protective property of 1-MNA
effect on gastroprotection and the accompanying rise in the GBF induced by 1-MNA [1]: significantly attenuated

Molecule: COc1ccc2c(c1)c(CC(=O)O)c(C)n2C(=O)c1ccc(Cl)cc1 [indomethacin]
effect on the protection by 1-MNA with respect to gastric lesions ([1]; WRS): significantly inhibited the protection by 1-MNA
effect on the protective property of 1-MNA as measured by mean lesion number and plasma levels of IL-1β and TNFα ([1]; WRS): significantly inhibited the protective property of 1-MNA
lesion numbers after COX inhibitor pretreatment before 1-MNA and WRS [1]: increase of lesion numbers
effect on gastroprotection and the accompanying rise in the GBF induced by 1-MNA [1]: significantly attenuated

number of lesions after COX inhibitor pretreatment in the absence of 1-MNA ([5]; indomethacin 5 mg/kg i.p., SC-560 5 mg/kg i.g. or rofecoxib 10 mg/kg i.g., versus no inhibitor): increased the number of lesions
Molecule: CS(=O)(=O)c1ccc(C2=C(c3ccccc3)C(=O)OC2)cc1 [rofecoxib]
effect on the protection by 1-MNA with respect to gastric lesions ([1]; WRS): significantly inhibited the protection by 1-MNA
effect on the protective property of 1-MNA as measured by mean lesion number and plasma levels of IL-1β and TNFα ([1]; WRS): significantly inhibited the protective property of 1-MNA
lesion numbers after COX inhibitor pretreatment before 1-MNA and WRS [1]: increase of lesion numbers
effect on gastroprotection and the accompanying rise in the GBF induced by 1-MNA [1]: significantly attenuated

Molecule: calcitonin gene related peptide [CGRP]
effect on the deleterious effects of capsazepine ([1]; WRS, addition of CGRP): counter the deleterious effects of casazepine
effect on the deleterious effects of capsaicin-induced denervation ([1]; WRS, addition of CGRP to 1-MNA in denervated rats): counteracted the deleterious effects of capsaicin-induced denervation
